The values below come from patent publication US20240398775A1, “PHARMACEUTICAL COMPOSITION FOR USE IN TREATING COGNITIVE DECLINE OR FOR USE IN TREATING OVERWEIGHT OR OBESITY” (University of the Ryukyus, priority 2021, published 2024).

Test [1] in a line: Body weight monitoring of obese mice. In kind it is in vivo, mouse. The procedure: Male C57BL/6J background and ob/ob mice were obtained from CLEA Japan Inc. and Japan SLC, respectively (3). The reason why male mice were selected is that it has been reported that male mice are susceptible to HFD, such as weight gain, metabolic changes, and disorder of learning and hippocampal synaptic plasticity. These animals were housed 3 to 4 per cage in a standard 12 hour dark-light cycle room at 25° C. in an environment with freely available food and water. All animal experiments were performed in accordance with the guidelines of the Animal Experiment Ethics Committee of the University of the Ryukyus. Time series changes in average food intake and average body weight were monitored in each condition.
HFD mice were orally administered with HydroGel (Clear HO, Portland, ME 04101, USA) at a dose of 5 mg/kg body weight (HFD treated group with PER). For ob/ob mice, CE-2 feed (CLEA Japan, Inc., Tokyo) was used. HFD mice and ob/ob mice were orally administered one per cage with PER at a dose of 5 mg/kg body weight (HFD mice and ob/ob mice PER-administered group), and body weight and HydroGel intake were monitored twice a week for both groups to adjust the dose of PER to 5 mg/kg body weight.
Post-weaning (6 weeks) food intake and body weight of mice maintained on control diet (CD), high-fat diet (HFD), or HFD containing PER (Fycompa (trademark), Eisai, Japan) (5 mg/kg/day) was monitored up to 18 w (FIGS. 2, E and F). […] To determine the effect of HFD on cognitive behaviors, the open field test (FIG. 9, AC), elevated plus maze test (FIG. 9, DE), the contextual fear conditioning test (FIG. 9, F), the novel object recognition test (FIG. 2G), and a five-trial social interaction test (FIG. 2H) were performed. […]
Mice were then split into an HFD-fed group (n=5) and a PER-containing HFD-fed group (n=5) under the condition of the same feeding amount (refer to lower Panel of FIG. 25) and their body weights monitored.

Test [2] deals with NL-G-F mice. Put plainly: Novel object recognition test in Alzheimer's dementia model mice. In kind it is in vivo, mouse. Particulars: NL-GF mice (n=5), perampanel 5 mg/kg body weight/day in CD diet from 8 to 13 weeks of age. The procedure: Mice of CD, HFD, and HFD with PER treatment were handled daily for 5 minutes for 5 days prior to the start of the novel object recognition test. PER means the perampanel, which is an AMPA receptor antagonist. The mice were habituated to a 35 cm square, 25 cm high box for 10 minutes on the first day, and were given 2 identical objects (familiar objects) for 10 minutes on the second day. On the third day, one of the familiar objects was replaced with a novel object of different shape and color (FIG. 2F). […] The search time for each object was measured by offline analysis (47).
NL-GF mice begin to accumulate in the brain of Aβ from 8 weeks of age (Nat. Neurosci. 2014 17, 661-4). In this example, the AD model mouse (n=5) was fed a CD diet containing a perampanel at a dose of 5 mg/kg body weight/day from 8 to 13 weeks of age, and the mouse was subjected to a novel object recognition test. In the negative control (n=5), a normal CD diet without perampanel was taken.
NL-G-F(−/−) mice, a dementia model, were administered with memantine (mema), exercise, memantine and exercise, memantine and perampanel, and perampanel alone (5 mg/kg or 10 mg/kg), and subjected to behavioral experiments. As the behavior test, a novel object recognition test and a hippocampus function-dependent fear conditioning test were performed. […]

The test system of test [3] is Aβ42/Aβ40. Kind of test: Aβ42/Aβ40 ratio of neurosphere culture supernatant by EIA. Particulars: neurospheres from NL-G-F(−/−) mouse embryonic hippocampus, perampanel 50 μM, day 2 and day 4 of culture. In kind it is cell-based. The source says:
Biomarkers of Alzheimer's dementia include the Aβ42/Aβ40 ratio of cerebrospinal fluid (CSF) and plasma levels, phosphorylated tau (P-tau) in threonines 181 and 217, and neurofilament lite (NfL) (Curr Opin Neurol 2021 1 266-274). The Aβ42/Aβ40 ratio is considered to be able to predict Aβ accumulation in PET (Doecke J D et al., Neurology 2020). Hippocampus on 17 to 19 days of NL-G-F(−/−) mouse embryonic life was taken out and cultured by a Neurosphere method by Brewer G J et al. (Nat Protoc 2007 2, 1490-1498), and a supernatant was measured by an EIA method using this culture system. The change in the Aβ42/Aβ40 ratio by the perampanel (50 μM/methyl cellulose 4 μL) was analyzed. In 4 μL of a 0.5 w/v % aqueous solution of methyl cellulose 400, 5×10^4 spheres smaller than 50 μm in diameter were cultured in 50 ml Falcon Flask coated with poly-D-lysine/laminin, and Aβ42 and Aβ40 of the supernatant were measured by EIA method on the second day (FIG. 29A) and the fourth day (FIG. 29B) of culture. The solvent was administered 12 hours after seeding.

As for `N#Cc1ccccc1-c1cc(-c2ccccn2)cn(-c2ccccc2)c1=O` [PER, 3-(2-cyanophenyl)-5-(2-pyridyl)-1-phenyl-1,2-dihydropyridine-2-one], the body weight result in test [1] (HFD containing PER 5 mg/kg/day from 6 weeks to 18 w, started from 16 w compared to HFD) is on record as “significant inhibition”. In test [1] (PER-containing HFD-fed group (n=5) vs HFD-fed group (n=5)), the “body weight under the same feeding amount” value is on record as “significant body weight loss”. For the same molecule, the “appearance and body weight” value in test [1] (ob/ob mice, perampanel-containing diet 5 mg/kg body weight from 8 to 12 weeks of age) is reported as “overweight was prevented”. The novel object recognition entry in test [2] is given as “significantly distinguish”. In addition, the “Aβ42/Aβ40 ratio of the culture supernatant” value in test [3] is on record as “significantly increased”.
